Experimental data reported in patent EP4635969A1, “NOVEL GLUCOCORTICOID, METHOD FOR PREPARING SAME, AND USE THEREOF” (Tianjin Pharmaceutical Biotechnology Co., Ltd., priority 2022, dated 2024).

Target: T1, glucocorticoid receptor (GR) (Homo sapiens, UniProt P04150)
T1 sequence (P04150 521-777): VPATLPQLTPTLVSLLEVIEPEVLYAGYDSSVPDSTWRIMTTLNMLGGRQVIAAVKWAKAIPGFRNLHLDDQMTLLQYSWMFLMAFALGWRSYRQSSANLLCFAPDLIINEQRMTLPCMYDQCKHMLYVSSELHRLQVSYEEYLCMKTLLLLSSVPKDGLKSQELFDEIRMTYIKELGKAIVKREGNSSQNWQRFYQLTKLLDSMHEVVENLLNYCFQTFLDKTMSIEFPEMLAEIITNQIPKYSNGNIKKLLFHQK
Test: Assay for agonist activity on glucocorticoid receptor (luciferase reporter, HEK293 cells transfected with pBIND-GR plasmid)
Assay type: cell-based
Settings: HEK293 cells transfected with pBIND-GR, luciferase signal; read-out: GR agonist EC50
Protocol: Pharmacological Example 1: Assay for Agonist Activity on Glucocorticoid Receptor (GR)
The test compounds were subjected to a 4-fold serial dilution starting from an initial concentration of 10 µ M, generating a 10-point concentration gradient with duplicate wells for each concentration. The blank control consisted of 0.1 % DMSO.
The HEK293 stable cell line […] transfected with glucocorticoid receptor (GR) (ICE Bioscience, Lot No. TYP-20220519) was cultured in Dulbecco's Modified Eagle Medium (DMEM) supplemented with 10% fetal bovine serum (FBS) and 200 µ g/ml Hygromycin B in a cell incubator containing 5% CO2 at 37 °C. The spent medium was aspirated and the cells were washed once with phosphate-buffered saline (PBS). Then, 1 mL of TrypLE™ Express solution was added, and the cells were incubated at 37 °C for approximately 2 min. When the cells detached from the bottom of the cell culture dish, approximately 5 mL of pre-warmed complete medium at 37 °C was added. The cell suspension was gently pipetted with a pipette to dissociate clumped cells. The cell suspension was transferred to a sterile centrifuge tube and centrifuged at 1000 rpm for 5 min to pellet the cells for experiments or subculture.
HEK293 cells were digested and seeded into 6-cm culture dishes. The pBIND-GR plasmid was transfected into the HEK293 cells using a transfection reagent, resulting in HEK293 cells successfully transfected with the pBIND-GR plasmid. The cells were resuspended in phenol red-free DMEM medium containing 5% charcoal-stripped serum, counted, and then seeded into 96-well plates. The test compounds were added, and the plates were then incubated in an incubator. The luminescence signal values were measured using a multimode microplate reader following the instructions of the luciferase assay kit. The EC50 values of each test compound were calculated using the nonlinear fitting formula with GraphPad Prism 8.0 software.

Structure (SMILES)	EC50 [nM]
C[C@]12C=CC(=O)C=C1[C@@H](F)C[C@H]1[C@@H]3C[C@H]4OC(C5CCC(NC(=O)C6COC(=O)C6)CC5)O[C@@]4(C(=O)SCF)[C@@]3(C)C[C@H](O)[C@@]12F (stereo partly drawn) [Compound 6, S-(Fluoromethyl) (2S,6aS,6bR,7S,8aS,8bS,11aR,12aS,12bS)-2,6b-difluoro-7-hydroxy-6a,8a-dimethyl-4-oxo-10-(4-(5-oxotetrahydrofuran-3-carboxamido)cyclohexyl)-1,2,4,6a,6b,7,8,8a,11a,12,12a,12b-dodecahydro-8bH-naphtho[2',1':4,5]indeno[1,2-d][1,3]dioxole-8b-carbothioate]	8.69
C[C@]12C=CC(=O)C=C1[C@@H](F)C[C@H]1[C@@H]3C[C@H]4OC(c5ccc(CNC6COC(=O)C6)cc5F)O[C@@]4(C(=O)CO)[C@@]3(C)C[C@H](O)[C@@]12F (stereo partly drawn) [Compound 12, (2S,6aS,6bR,7S,8aS,8bS,11aR,12aS,12bS)-2,6b-Difluoro-10-(2-fluoro-4-(((5-oxotetrahydrofuran-3-yl)amino)methyl)phenyl)-7-hydroxy-8b-(2-hydroxyacetyl)-6a,8a-dimethyl-1,2,6a,6b,7,8,8a,8b,1 1a,12,12a,12b-dodecahydro-4H-naphtho[2',1':4,5]indeno[1,2-d][1,3]dioxol-4-one]	4.06
C[C@]12C=CC(=O)C=C1CC[C@@H]1[C@@H]2[C@@H](O)C[C@@]2(C)[C@H]1C[C@H]1OC(c3ccc(CSC4COC(=O)C4)cc3C#N)O[C@]12C(=O)CO (stereo partly drawn) [Compound 32, 2-((6aR,6bS,7S,8aS,8bS,11aR,12aS,12bS)-7-Hydroxy-8b-(2-hydroxyacetyl)-6a,8a-dimethyl-4-oxo-2,4,6a,6b,7,8,8a,8b,11a,12,12a,12b-dodecahydro-1H-naphtho[2',1':4,5]indeno[1,2-d][1,3]dioxol-10-yl)-5-(((5-oxotetrahydrofuran-3-yl)thio)methyl)benzonitrile]	3.67
C[C@]12C=CC(=O)C=C1CC[C@@H]1[C@@H]2[C@@H](O)C[C@@]2(C)[C@H]1C[C@H]1OC(c3ccc(CNC4CCOC4=O)cc3)O[C@]12C(=O)CO (stereo partly drawn) [Compound 30, (6aR,6bS, 7S,8aS,8bS,11aR,12aS,12bS)-7-Hydroxy-8b-(2-hydroxyacetyl)-6a,8a-dimethyl-10-(4-(( (2-oxotetrahydrofuran-3-yl)amino)methyl)phenyl)-1,2,6a,6b,7,8,8a,8b,11a,12,12a,12b-dodecahydr o-4H-naphtho[2',1':4,5]indeno[1,2-d][1,3]dioxol-4-one]	7.2
C[C@]12C=CC(=O)C=C1CC[C@H]1[C@@H]3C[C@H]4OC(c5ccc(CNC6COC(=O)C6)cc5)O[C@@]4(C(=O)CO)[C@@]3(C)C[C@H](O)[C@@]12Cl (stereo partly drawn) [Compound 27, (6aS,6bR,7S,8aS,8bS,11aR,12aS,12bS)-6b-Chloro-7-hydroxy-8b-(2-hydroxyacetyl)-6a,8a-dimethyl-10-(4-(((5-oxotetrahydrofuran-3-yl)amino)methyl)phenyl)-1,2,6a,6b,7,8,8a,8b,11a,12,12a,12b-dodecahydro-4H-naphtho[2',1':4,5]indeno[1,2-d][1,3]dioxol-4-one]	1.82
C[C@]12C=CC(=O)C=C1CC[C@@H]1[C@@H]2[C@@H](O)C[C@@]2(C)[C@H]1C[C@H]1OC(c3ccc(CSC4CCOC4=O)cc3)O[C@]12C(=O)CO (stereo partly drawn) [Compound 29, (6aR,6bS, 7S,8aS,8bS,11aR,12aS,12bS)-7-Hydroxy-8b-(2-hydroxyacetyl)-6a,8a-dimethyl-10-(4-(( (2-oxotetrahydrofuran-3-yl)thio)methyl)phenyl)-1,2,6a,6b,7,8,8a,8b,11a,12,12a,12b-dodecahydro-4H-naphtho[2',1':4,5]indeno[1,2-d][1,3]dioxol-4-one]	3.66
